Results: patent US20260257993A1, “COMPOUND, RUBBER BLEND CONTAINING THE COMPOUND, VEHICLE TIRE COMPRISING THE RUBBER BLEND IN AT LEAST ONE COMPONENT, PROCESS FOR PRODUCING THE COMPOUND, AND USE OF THE COMPOUND AS AN AGEING PROTECTANT AND/OR ANTIOZONANT AND/OR DYE” (Continental Reifen Deutschland GmbH, priority 2021, published 2026)

assay: Measurement of oxidation induction time (OIT) by DSC; settings: with liquid polyisoprene LIR-50, isothermal 180° C., O2 atmosphere 50 mL/min, DSC peak
Experimental: The compounds of formula II) and III) were investigated under laboratory conditions for their potential protective effect as aging stabilizers by measurement of the oxidation induction time.
To this end the compounds of formula II) and III) and 6-PPD in each case together with a polymer (liquid synthetic polyisoprene (IR), LIR-50, Kuraray, weight average molecular weight distribution Mw=54 000 g/mol, glass transition temperature Tg=−63° C.) were heated at constant temperature (180° C.) until onset of oxidation (start temperature 35° C., heating to 170° C. at a heating rate of 20 K/min (kelvin per minute), heating to 180° C. at a heating rate of 1 K/min; purge gas: nitrogen (N2), volume flow 50 mL/min). The specimen was isothermally maintained for 5 minutes at 180° C. under an N2 atmosphere and the atmosphere was then switched to an 02 atmosphere (volume flow 50 mL/min).
Oxidation was determined via a peak using DSC (differential scanning calorimetry).
The time in minutes to oxidation was measured.

Question: For `CC(C)CC(C)Nc1ccc(Nc2ccccc2)cc1` (stereo not drawn) [6-PPD, N-(1,3-dimethylbutyl)-N′-phenyl-p-phenylenediamine, reference compound], which “Oxidation induction time: time to oxidation” value (from here on “Oxidation induction time: time”) is on record?
Answer: 116 ± 10 min

Question: For `CC(C)CC(C)Nc1ccc2[nH]c(-c3ccccc3)cc2c1` (stereo not drawn) [formula II), 2-phenyl-5-(1,3-dimethylbutylamino)-1H-indole], which “Oxidation induction time: time” value is on record?
Answer: 105 ± 10 min

Question: For `CC(C)CC(C)Nc1ccc2[nH]c(C3CCCCC3)cc2c1` (stereo not drawn) [formula III), 2-cyclohexyl-5-(1,3-dimethylbutylamino)-1H-indole], which “Oxidation induction time: time” value is on record?
Answer: 205 ± 10 min
